Measurements taken from patent publication US20060115863A1, “Inositol phosphate detection assays” (AstraZeneca AB, priority 2002, published 2006).
One block for each compound: values may come before it.

Key:
[1] = target: human neurokinin NK1 receptors (Homo sapiens, UniProt P25103); experiment: NK1-mediated PI hydrolysis measured with Zr4+-SPA beads (IMAC-SPA); assay type: cell-based
[2] = system: PDGF receptor; experiment: PDGF receptor-mediated PI hydrolysis in quiescent Swiss 3T3 cells measured with Zr4+-SPA beads; assay type: cell-based
Experimental: Swiss 3 T 3 cells were maintained in DMEM medium supplemented with 10% heat-inactivated calf serum. For PI hydrolysis assay, the cells were grown in 96-well plates in [^3H]inositol-containing medium for 16-48 hr, then deprived of serum for 24 hr. The cells were stimulated with PDGF-BB for 45-60 min and the inositol phosphate accumulated in the cells was measured by IMAC-SPA in the same way as described for NK1 receptors.
The PDGF receptor belongs to the superfamily of tyrosine kinase-linked growth factor receptors. Stimulation of the PDGF receptor leads to activation of PLC-y through Ras-related GTPase (Ji et al., 1999, Mol. Cell. Biol., 1999. 19:49614970; Wang et al., 1998, Mol. Cell. Biol., 18:590-597; Heldin et al., 1998, Biochim. Biophys. Acta, 1378:F79-113; Stice et al., 1999, Front. Biosci., 4:D72-86).

human neurokinin NK1 receptors, sequence (P25103 whole entry): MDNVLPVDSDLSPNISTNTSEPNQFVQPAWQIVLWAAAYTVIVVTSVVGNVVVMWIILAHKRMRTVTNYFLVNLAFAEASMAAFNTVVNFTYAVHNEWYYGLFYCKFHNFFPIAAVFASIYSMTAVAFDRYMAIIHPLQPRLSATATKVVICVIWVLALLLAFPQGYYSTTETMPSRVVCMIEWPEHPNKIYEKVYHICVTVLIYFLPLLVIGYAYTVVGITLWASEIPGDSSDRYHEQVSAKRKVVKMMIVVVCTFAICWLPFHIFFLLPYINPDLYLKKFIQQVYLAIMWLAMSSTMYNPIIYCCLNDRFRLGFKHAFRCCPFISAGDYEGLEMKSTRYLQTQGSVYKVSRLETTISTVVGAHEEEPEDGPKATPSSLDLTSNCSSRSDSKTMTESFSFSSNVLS

inhibition of PI hydrolysis induced by Substance P (mode) ([1]; NK1 CHO cells, shifted the concentration-response curve to the right): inhibited competitively
Compound: FC(F)(F)c1cc(CO[C@H]2CCCN[C@H]2c2ccccc2)cc(C(F)(F)F)c1 [L-733060]

EC50 of stimulation of PI hydrolysis [2]: 3.0 ng/mL
Compound: PDGF-BB: Human recombinant platelet-derived growth factor (PDGF-BB) from Calbiochem
maximal increase in inositol phosphate production [2]: 5 fold

Compound: Substance P
increase in signal ([3H]inositol phosphate) over the control ([1]; 0.1 μM, CHO cells expressing NK1 receptor, Zr4+-loaded SPA beads, saline control): 12 fold
